Data set [1] addresses T1, TLR7 (Homo sapiens, UniProt Q9NYK1).
T1 construct: host or cells: human skin, clinical use (Madan et al. 2010)
T1 sequence (Q9NYK1 27-1049): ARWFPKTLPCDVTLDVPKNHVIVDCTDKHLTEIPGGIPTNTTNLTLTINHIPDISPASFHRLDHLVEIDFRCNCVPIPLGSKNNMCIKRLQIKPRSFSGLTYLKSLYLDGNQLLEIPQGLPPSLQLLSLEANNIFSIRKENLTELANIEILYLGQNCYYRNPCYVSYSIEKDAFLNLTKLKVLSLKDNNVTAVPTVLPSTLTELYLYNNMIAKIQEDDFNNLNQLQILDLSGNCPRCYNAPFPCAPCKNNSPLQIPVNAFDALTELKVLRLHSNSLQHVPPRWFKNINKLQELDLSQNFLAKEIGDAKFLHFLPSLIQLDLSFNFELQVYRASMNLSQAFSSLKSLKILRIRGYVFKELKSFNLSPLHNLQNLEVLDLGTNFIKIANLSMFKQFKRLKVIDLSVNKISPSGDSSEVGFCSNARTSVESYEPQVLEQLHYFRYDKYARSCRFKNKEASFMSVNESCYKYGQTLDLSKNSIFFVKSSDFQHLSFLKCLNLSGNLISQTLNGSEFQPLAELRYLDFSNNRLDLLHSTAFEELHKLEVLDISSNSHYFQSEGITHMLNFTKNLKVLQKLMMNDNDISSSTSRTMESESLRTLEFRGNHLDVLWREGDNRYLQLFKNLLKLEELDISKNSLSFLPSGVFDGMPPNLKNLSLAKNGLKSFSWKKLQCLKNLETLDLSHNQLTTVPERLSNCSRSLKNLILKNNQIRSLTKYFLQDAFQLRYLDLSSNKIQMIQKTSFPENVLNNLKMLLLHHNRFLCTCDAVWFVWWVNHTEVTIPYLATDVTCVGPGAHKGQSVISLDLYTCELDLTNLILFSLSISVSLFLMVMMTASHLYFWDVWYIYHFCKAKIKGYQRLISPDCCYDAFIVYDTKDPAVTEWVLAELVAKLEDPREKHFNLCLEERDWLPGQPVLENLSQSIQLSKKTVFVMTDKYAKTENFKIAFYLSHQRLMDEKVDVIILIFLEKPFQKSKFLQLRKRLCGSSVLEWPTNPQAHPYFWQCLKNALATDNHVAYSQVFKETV
To be noted: cited from earlier work.

The test system of data set [2] is mice. The data set can be described thus: Imiquimod-induced scratching in Trpv1-/- and mast cell-deficient SASH mice. Format: in vivo.
The target in data set [3] is T2, TLR7 (Mus musculus, UniProt P58681).
T2 construct: We found functional TLR7 receptors in small-size DRG neurons; from tissue; host or cells: small DRG neurons of mice; nape and cheek skin of live mice (C57BL/6J background, CD1)
T2 sequence (P58681 27-1050): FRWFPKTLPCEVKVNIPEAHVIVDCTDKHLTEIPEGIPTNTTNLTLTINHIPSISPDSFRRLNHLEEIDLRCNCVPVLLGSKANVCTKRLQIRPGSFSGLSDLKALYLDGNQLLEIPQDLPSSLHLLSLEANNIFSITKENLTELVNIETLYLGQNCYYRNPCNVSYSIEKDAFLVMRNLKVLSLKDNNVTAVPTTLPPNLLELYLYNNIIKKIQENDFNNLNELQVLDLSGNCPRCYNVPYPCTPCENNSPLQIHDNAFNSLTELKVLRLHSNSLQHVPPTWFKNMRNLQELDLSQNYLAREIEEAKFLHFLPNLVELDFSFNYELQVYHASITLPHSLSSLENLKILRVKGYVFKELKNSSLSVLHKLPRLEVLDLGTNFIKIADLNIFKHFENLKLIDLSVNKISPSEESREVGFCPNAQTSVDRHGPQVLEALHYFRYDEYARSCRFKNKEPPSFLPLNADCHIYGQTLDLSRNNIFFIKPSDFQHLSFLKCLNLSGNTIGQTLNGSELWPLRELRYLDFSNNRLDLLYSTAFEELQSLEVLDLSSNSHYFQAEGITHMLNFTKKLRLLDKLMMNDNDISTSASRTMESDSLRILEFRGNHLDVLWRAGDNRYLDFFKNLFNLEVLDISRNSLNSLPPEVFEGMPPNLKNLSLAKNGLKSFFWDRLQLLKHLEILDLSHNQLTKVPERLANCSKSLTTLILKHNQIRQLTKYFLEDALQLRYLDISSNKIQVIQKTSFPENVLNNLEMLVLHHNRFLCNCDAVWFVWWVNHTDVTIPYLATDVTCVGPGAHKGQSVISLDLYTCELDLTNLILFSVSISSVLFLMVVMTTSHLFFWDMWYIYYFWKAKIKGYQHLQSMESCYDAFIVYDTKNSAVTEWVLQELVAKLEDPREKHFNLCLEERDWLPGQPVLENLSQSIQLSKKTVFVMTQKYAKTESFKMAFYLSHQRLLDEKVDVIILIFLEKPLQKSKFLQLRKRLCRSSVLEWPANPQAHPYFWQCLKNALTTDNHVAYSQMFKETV
To be noted: mice; cited from earlier work.

The target in data set [4] is T2, TLR7. Briefly: Cheek model of itch versus pain, TLR7 ligands. Particulars: 20 μg intradermal into the cheek. Format: in vivo, mice. How it is done:
To distinguish itch and pain responses simultaneously, we used the cheek model by injection of chemical into cheek of mice (8). After brief anesthesia with isoflurane, we shaved mice on cheeks (approx. 5×8 mm area) two days before experiments. On the day of experiment, we injected 10 μl of reagent (50 μg compound 48/80 or 100 μg chloroquine) into the cheek and counted the number of wipes and the number of scratches for 30 min. We only counted those unilateral wipes with the forelimb that were not part of grooming behavior. One scratch was defined as a lifting of the hind paw toward the injection site on the cheek and then returning the paw to the floor or to the mouth.
To further investigate a unique role of TLR7 in itch versus pain, we used a recently developed “cheek model” of itch (Shimada, S. G. & LaMotte, R. H. Pain 139, 681-687 (2008)).

Data set [5] deals with TLR7. The data set can be described thus: Scratches after intradermal injection in the nape of the neck, WT and Tlr7-/- mice. The data set is classed as in vivo. An excerpt:
We next evaluated whether TLR7 plays a role in itch sensation. We counted the number of scratches (bouts) by a hindpaw of mouse following intradermal injection of pruritogenic agents in the nape of the neck.

In data set [6] the target is T2, TLR7. The data set can be described thus: Patch clamp recording of inward currents and action potentials in small DRG neurons, TLR7 ligands. Format: cell-based, mice.
Data set [7] has as its system TLR7. The data set can be described thus: IMQ-induced scratches after intrathecal TLR7 siRNA. The data set is classed as in vivo. To be noted: siRNA 4 μg intrathecal with PEI 48 and 24 h before IMQ (20 mg, 20 μg elsewhere in the source), CD1 mice, vs NT siRNA; P<0.05. The method, then: (§1) 4 μg siRNA targeting TLR7 ([…] (SEQ ID NO:8)) (synthesized by Dharmacon, On-target Plus) or a non-targeting control siRNA ([…] (SEQ ID NO:9)) was administered intrathecallly to wild type (CD1) mice at 24 and 48 hours before the mice received an injection of IMQ ([…]). siRNA was dissolved in RNase-free water at 1 μg/μl as stock solution and mixed with polyethyleneimine (PEI, Fermentas Inc. Hanover, USA, 0.18 μl of PEI solution for 1 μg of siRNA), 10 minutes before injection, to increase cell membrane penetration and reduce the degradation. PEI was dissolved in 5% glucose. After behavioral testing, DRG tissues were collected for quantitative PCR analysis.

Data set [8] relates to TLR7 mRNA. Briefly: TLR7 mRNA levels in cervical DRGs by quantitative PCR after siRNA. To be noted: siRNA 4 μg intrathecal, P<0.05. The data set is classed as in vivo, mice. The method, then:
as §1

Turning to `CC(C)Cn1cnc2c(N)nc3ccccc3c21` [imiquimod], in data set [1], the “pruritus on topical application” value is listed as “frequently elicits pruritus”. Moreover, in data set [2] (SASH mice vs WT control), the “reduction in imiquimod-induced scratching in mast cell-deficient SASH mice” value is 28%. In data set [2] (Trpv1-/- vs WT control), the “imiquimod-induced scratching in Trpv1-/- mice” value is “remained unaltered”. Further, the skin inflammation result in data set [3] is recorded as “induces psoriasis-like skin inflammation”. In data set [4], the “itch-like scratching in cheek model” value is listed as “elicited itch-like scratching” and the “pain-indicative wiping in cheek model” value is “not pain-indicative wiping behavior”. The “dose response curve of scratching” value in data set [5] (intradermal injection, nape) is “inverted-U-shaped dose response curve”. Moreover, in data set [5] (intradermal, 100 μg), the “scratches in Tlr7-/- mice versus WT” value was “reduced”. Also, the “neurons from WT mice that respond” value in data set [6] (500 μM, small DRG neurons) was “Eight out of 17”. Further, the “action potentials in DRG neurons” value in data set [6] (WT but not Tlr7-/- mice, 500 μM) is “induced action potentials”. In data set [6] (all 10 neurons), the “response of neurons from Tlr7-/- mice” value was “fail to respond”. For the same compound, in data set [6] (capsaicin-responsive DRG neurons of WT but not Tlr7-/- mice, imiquimod 20-500 μM), the “inward currents in DRG neurons” value is given as “dose-dependent inward currents”.

In the case of “TLR7 siRNA: siRNA targeting TLR7 (CCUUACACUAUUUCCGAUA, SEQ ID NO:8), synthesized by Dharmacon, On-target Plus (chemistry not given here)”, the IMQ induced scratches result in data set [7] is on record as “significantly reduced”. For the same compound, the “TLR7 mRNA levels in cervical DRGs” value in data set [8] is “reduced levels”.

The values above are taken from patent US9241991B2, “Agents, compositions, and methods for treating pruritus and related skin conditions” (The Brigham and Women's Hospital, Inc., priority 2010, dated 2016).
